Series [1] concerns primary VS cells. Briefly: BrdU proliferation assay in primary VS cultures. To be noted: for proliferation, of the non-treated cells / proliferation, of the NT cells: 48 hours. The format is cell-based, human. The method, then:
Proliferation rate of 12 VS cultures was assessed and correlated with the tumor volume in the latest gadolinium enhanced T1-weighted MRI scan prior to surgical resection, and with tumor growth in vivo, measured as changes in the tumor's volume over time calculated from serial MRI scans. Tumor growth was standardized by dividing the growth rate by the initial tumor volume. Separate analyses were performed for solid tumors, which generally account for approximately 96% of VSs (Charabi et al., 1994), versus all studied tumors, which included 4 out of 13 total tumors with a visible cystic component, because cystic components could misrepresent true tumor volume (Charabi et al., 1994). To determine the level of cell proliferation in the cultures, Bromodeoxyuridine (BrdU) was added to the cells at a concentration of 10 μg/ml 20 hours before the cells were fixed. The cells were kept in the dark after the addition of BrdU Immunofluorescence protocol was followed as described under ‘Immunofluorescence,’ and cell and nuclear membranes were permeablized by incubation in 1% Triton-X for 10 minutes and by incubation in 2N Hydrochloric acid for 20 minutes, respectively, after fixation. Primary antibody against BrdU (AbD Serotec, NC, 1:200) and anti-rat IgG (Life Technologies, NY, 1:1000) were used. BrdU- and Hoechst-stained nuclei were counted in 3-5 fields and the ratio of BrdU positive to Hoechst positive nuclei was used to determine the proliferation rate in vitro. […]
(§1) Cultured human primary VS cells, primary SCs and HEI-193 cells were treated with NF-κB inhibitors BAY11-7082 (BAY11) or curcumin for 48 hours (Santa Cruz Biotechnology). BAY11 or curcumin, diluted in 100% DMSO, were mixed to the accurate concentrations in warmed media and applied to the cultures (with DMSO concentration in media being 1% maximum), alongside a no-treatment control receiving media alone with appropriate corresponding DMSO levels. Experiments were performed in media fortified with antibiotics and serum (same formulation as described in Example 1 for culturing cells).
(§2) After 48 hours of treatment, primary VS and Schwann cultures were fixed for BrdU staining, to visualize proliferation, or TUNEL staining, to visualize cell death. The same methodology as described in Example 1 was utilized. Cleaved caspase 3 staining, another apoptosis marker to reinforce findings using TUNEL, was conducted using an antibody against cleaved caspase 3 following the ‘immunofluorescence’ protocol outlined in Example 1.
(§3) The cultures were incubated with the drugs for 48 hours. To label proliferating cells, BrdU was added 20 hours before fixation. pH was measured in the media after drug addition to ensure no significant deviations.
(§4) After 48 hours of treatment with salicylates, primary VS and SC cultures were fixed for BrdU staining, to visualize proliferation, or TUNEL staining, to visualize cell death. The same methodology as described in Example 1 was utilized.
To understand cross-talk between HGF and VEGF-A pathway, cultured VS cells were incubated with Life Technologies silencer select siRNAs targeting VEGFA (s461) or MET (s8700). To understand whether HGF signaling contributed to VS proliferation, cultured VS cells were treated with MET inhibitor SU11274 (Sigma-Aldrich, MO, #S9820). Seventy-two hours after siRNA treatment or 12 hours after treatment with SU11274 (2 μM), cells were incubated with 10 μg/mL BrdU (Life Technologies, NY, # B23151) for 20 hours before fixation.

The subject of series [2] is primary VS cells. Briefly: TUNEL cell death assay in primary VS cultures. The format is cell-based, human. To be noted: 48 hours. The protocol: Rate of apoptosis in 6 VS cultures was assessed and correlated with tumor growth in vivo and tumor volume. […] Apoptosis was measured using terminal deoxynucleotidyl transferase dUTP nick end labeling (TUNEL, Roche Applied Sciences, NY) following manufacturer's instructions. Briefly, immunofluorescence protocol was followed as described under ‘Immunofluorescence,’ until fixations, then the cells were washed with PBS thrice and incubated in 1% Triton-X for 10 minutes on shaker. The cells were washed with PBS once and incubated in TUNEL mix for 1 hour at 37° C., then for 30 minutes at RT on shaker. The cells were then incubated in rhodamine phalloidin (Life Technologies, NY, 1:40) and Hoechst stain for 20 minutes, washed with PBS thrice and mounted onto slides for imaging. TUNEL and Hoechst stained nuclei were counted in >3 fields and the ratio of TUNEL positive to Hoechst positive nuclei was used to determine apoptosis rate in vitro. A positive control of 10 minutes-DNAse (Roche Applied Sciences, NY) treatment prior to TUNEL labeling was utilized.
(§5) For siRNA treatment, cultured primary VS cells or HEI-193 cells were placed in antibiotic and serum free media overnight. The next day, the cells were incubated with Life Technologies siRNAs targeting NF-κB genes RELA and NF-κB1, with control cells being treated with vehicle only (Lipofectamine RNAiMax), for 5 days. Some cultures were also incubated with a fluorescent random Oligo (Life Technologies) along with vehicle to assess transfection efficiency. siRNA experiments were performed in antibiotic and serum free media.
BAY11 or curcumin, diluted in 100% DMSO, were mixed to the accurate concentrations in warmed media and applied to the cultures (with DMSO concentration in media being 1% maximum), alongside a no-treatment control receiving media alone with appropriate corresponding DMSO levels.
After 48 hours of treatment, primary VS and Schwann cultures were fixed for BrdU staining, to visualize proliferation, or TUNEL staining, to visualize cell death.
After 48 hours of treatment with salicylates, primary VS and SC cultures were fixed for BrdU staining, to visualize proliferation, or TUNEL staining, to visualize cell death.

Series [3] deals with primary SCs. Briefly: BrdU proliferation assay in primary Schwann cell cultures. As to conditions: 48 hours. The series is classed as cell-based, human. The method, then: (§6) Proliferation rate of 12 VS cultures was assessed and correlated with the tumor volume in the latest gadolinium enhanced T1-weighted MRI scan prior to surgical resection, and with tumor growth in vivo, measured as changes in the tumor's volume over time calculated from serial MRI scans. Tumor growth was standardized by dividing the growth rate by the initial tumor volume. Separate analyses were performed for solid tumors, which generally account for approximately 96% of VSs (Charabi et al., 1994), versus all studied tumors, which included 4 out of 13 total tumors with a visible cystic component, because cystic components could misrepresent true tumor volume (Charabi et al., 1994). To determine the level of cell proliferation in the cultures, Bromodeoxyuridine (BrdU) was added to the cells at a concentration of 10 μg/ml 20 hours before the cells were fixed. The cells were kept in the dark after the addition of BrdU Immunofluorescence protocol was followed as described under ‘Immunofluorescence,’ and cell and nuclear membranes were permeablized by incubation in 1% Triton-X for 10 minutes and by incubation in 2N Hydrochloric acid for 20 minutes, respectively, after fixation. Primary antibody against BrdU (AbD Serotec, NC, 1:200) and anti-rat IgG (Life Technologies, NY, 1:1000) were used. BrdU- and Hoechst-stained nuclei were counted in 3-5 fields and the ratio of BrdU positive to Hoechst positive nuclei was used to determine the proliferation rate in vitro.
as §1, §2, §3, §4

In series [4] the test system is primary SCs. Briefly: TUNEL cell death assay in primary Schwann cell cultures. The series is classed as cell-based, human. As to conditions: human, 48 h. The method, then:
(§7) Rate of apoptosis in 6 VS cultures was assessed and correlated with tumor growth in vivo and tumor volume. Two out of the six VS had cystic components. Apoptosis was measured using terminal deoxynucleotidyl transferase dUTP nick end labeling (TUNEL, Roche Applied Sciences, NY) following manufacturer's instructions. Briefly, immunofluorescence protocol was followed as described under ‘Immunofluorescence,’ until fixations, then the cells were washed with PBS thrice and incubated in 1% Triton-X for 10 minutes on shaker. The cells were washed with PBS once and incubated in TUNEL mix for 1 hour at 37° C., then for 30 minutes at RT on shaker. The cells were then incubated in rhodamine phalloidin (Life Technologies, NY, 1:40) and Hoechst stain for 20 minutes, washed with PBS thrice and mounted onto slides for imaging. TUNEL and Hoechst stained nuclei were counted in >3 fields and the ratio of TUNEL positive to Hoechst positive nuclei was used to determine apoptosis rate in vitro. A positive control of 10 minutes-DNAse (Roche Applied Sciences, NY) treatment prior to TUNEL labeling was utilized.
as §1, §2

Series [5] relates to HEI-193 NF2 VS cell line. Briefly: BrdU proliferation assay in HEI-193 cells. The series is classed as cell-based, human. As to conditions: 48 hours. The method, then: as §6
(§8) The same methodology as described in Example 1 was utilized for primary VS and SC cultures. Cultures were treated with NF-κB inhibitors approximately after 2 weeks of culturing. HEI-193 cell line was a gift from Dr. Giovannini at the House Ear Institute (Hung et al., 2002a).
as §5, §1, §2

Series [6] concerns HEI-193 NF2 VS cell line. Briefly: TUNEL cell death assay in HEI-193 cells. The series is classed as cell-based, human. As to conditions: 48 hours. The method, then:
as §7, §8, §5, §1, §2

In series [7] the test system is cochlear explant cultures (hair cells and neurites). Briefly: Murine cochlear explant culture, hair cell, neurite and fiber damage counts. The format is cell-based, CBA/CaJ mice. To be noted: 100 ng/mL FGF2 pre-application plus 1 mM gentamicin, 48 hours total. The text has this: To develop an animal model to study hearing loss due to VS, cochlear explant cultures were established from postnatal CBA/CaJ mice aged P3-P5 (Jackson Laboratory, ME). Briefly, after decapitating the mouse, temporal bones were dissected from the skull in Hank's Balanced Salt Solution (Life Technologies, NY). The otic capsule encasing the cochlea was dissected out from each temporal bone. The otic capsule was carefully stripped away and the spiral ligament was peeled away from the entire cochlea, starting from the base. The basal turn of cochlea was then isolated using the dissecting knife (Fine Science Tools, CA), discarding the apical turn hook region. The tectorial membrane and the Reissner's membrane were removed, leaving the organ of Corti intact with the spiral ganglion neuron region. This explant was cultured onto a 10 mm glass coverslip coated with CellTak (BD Biosciences, CA, #354241) in a 35 mm culture dish with 4 wells. Cells were cultured in 98% DMEM, 1% ampicillin and 1% N2 supplement.
To assess FGF2's otoprotective effect, cochlear explant cultures were treated with recombinant human FGF2±gentamicin. After culturing the explants overnight, media fortified with FGF2 (100 ng/mL) was applied. Twenty-four hours later media fortified with gentamicin (1 mM) and FGF2 (100 ng/mL) was applied. […] Cochlear explants were fixed after an additional 24 hours of treatment, with total time being 48 hours.
After treatment, the explants were fixed and stained with antibodies against myosin 7A (Myo7A, Proteus Biosciences, CA) and β-tubulin (Tuj1, Covance, MA) to identify hair cells (HCs) and neurons, respectively. The same immunofluorescence protocol as described in Example 1 was used, with the exceptions of omission of […] HCl incubation, usage of 5% NHS with 1% Triton-X for blocking solution and 1% NHS with 0.4% Triton-X solution for primary antibody incubation at room temperature (RT). Secondary antibodies (Alexa Flour 555 anti-mouse and Alexa Four 488 anti-rabbit) were purchased from Life Technologies. Cochlear explants were imaged using a Leica TCS SP5 Confocal microscope. Zoomed-in pictures for the region of organ of Corti, including neurites, were merged in a z-stack to obtain a z-axis projection image in the Leica software. The number of hair cells (HCs) and neurites were manually counted per 100 μm length along the cochlea, with 1-2 samplings per specimen.
The same general methodology for murine cochlear explant cultures as described in Example 5 was utilized. Cochlear explant cultures were established from P2-P3 mice. Importantly, instead of only culturing the basal turn, the apical turn was also isolated, providing two pieces per cochlea with a greater frequency range. After approximately 12 hours, the cochlear explant cultures were treated for 48 hours with tumor secretions diluted to half their concentration. The formulation was 46.5% tumor-conditioned DMEM, 46.5% plain DMEM, 5% FBS, 1% ampicillin and 1% N2 supplement. Cochlear explants were treated with control media in parallel, being 46.5% DMEM incubated without tumor, 46.5% plain DMEM, 5% FBS, 1% ampicillin and 1% N2 supplement. All reagents were purchased from Life Technologies, NY. Osmolality in the solutions was measured in samples using a vapor-pressure osmometer (standardized with 290 mOsm/kg of 0.1567M sodium chloride solution) before applying them onto cochlear explants. Extra formulation for each VS secretion was made to be tested on Milliplex arrays and ELISA. Milliplex array, containing FGF2, VEGF-A and HGF beads (Millipore) and human TNFα ELISA (R&D Systems) were conducted as directed by the manufacturer on VS secretions prior to being applied onto the cochlear explant cultures.
Cochlear explants were fixed 48 hours after treatment and the same methodology for VS secretion application as described in Example 5 was utilized. […]

On to `Cc1[nH]c(/C=C2\C(=O)Nc3ccc(S(=O)(=O)N(C)c4cccc(Cl)c4)cc32)c(C)c1C(=O)N1CCN(C)CC1` [SU11274], for which, in series [1] (2 μM, 12 hours then BrdU 20 hours), the “proliferation, of VS cells treated with DMSO only” value was found to be 22.4±11.7%.

With `COc1cc(/C=C/C(=O)CC(=O)/C=C/c2ccc(O)c(OC)c2)ccc1O` [curcumin], the figures for the “proliferation, of the non-treated cells” value in series [1] (5 μM) and in series [1] (20 μM) were 141.8%±95.2% and 23.0±20.9%, respectively. In addition, the cell death rate is listed as 11.6±6.3% in series [2] (5 μM); 1.8±1.0% in series [2] (20 μM); 73.3±6.3% in series [2] (50 μM); 1.7±0.4% in series [4] (20 μM); 52.2±14.9% in series [4] (50 μM); 0.3±0.1% in series [6] (5 μM). The cell death rate in series [6] (20 μM) came to 77.3±8.4%; in series [6] (50 μM) it was 97.8±1.5%. The normalized proliferation rate is given as 85.3±25.7% in series [3] (5 μM); 31.0±18.3% in series [3] (20 μM); 3.14% in series [3] (50 μM); 95.0±1.6% in series [5] (5 μM); 0.4±0.4% in series [5] (20 μM); 2.3±2.3% in series [5] (50 μM). Besides, the “apoptosis / cell death rate” value in series [4] (5 μM) was 1.3±0.3%.

For `Nc1ccc(O)c(C(=O)O)c1` [5-ASA, 5-aminosalicylic acid], the “proliferation, of the NT cells” value in series [1] (5 mM) came out at 55%; in series [1] (10 mM), 54.8±16.5%; in series [3] (5 mM), 107.8±22.4%; in series [3] (10 mM), 109.7±26.7%. Moreover, in series [2] (5 mM), the cell death rate stood at 5.6±3.2%.

Take FGF2: recombinant human FGF2: in series [7], the “number of neurites per 100 μm” value was 13.7±5.5 per 100 μm and the “total number of HCs per 100 μm length” value was 15.0±4.6 per 100 μm.

(Values after patent US10010585B2, “Methods of treating vestibular schwannoma and reducing hearing or neurite loss caused by vestibular schwannoma” (Massachusetts Eye and Ear Infirmary, priority 2014, dated 2018).)
